According to paper PMC13324451 (The Journal of Biological Chemistry, 2026):

Target: T1, RhsF-CT (Chromobacterium violaceum, UniProt Q7NY44)
T1 construct: gene CV_1431; C-terminal toxin domain, residues 1393-1513, 14 kDa; His6-TEV tag, apparently kept
Assay type: biochemical

**Q.** How did the “RNA ADP-ribosylation, TBE-urea gel and anti-ADP-ribose immunoblot” value turn out when `NC(=O)c1ccc[n+]([C@@H]2O[C@H](COP(=O)(O)OP(=O)(O)OC[C@H]3O[C@@H](n4cnc5c(N)ncnc54)[C@H](O)[C@@H]3O)[C@@H](O)[C@H]2O)c1` [NAD^+] was run?
**A.** Its value is “indicating that RhsF-CT can transfer ADP-ribose from NAD^+ to the RNA”.
